Earlier results, collected in patent US20080069870A1, “Controlled Release Compositions Comprising a Cephalosporin for the Treatment of a Bacterial Infection” (Elan Corporation Pic, priority 2005, published 2008).
Like-named read-outs stand apart in the source and are kept apart here.

How the values were obtained:
[1] = oral administration, after meals vs before meals

CC/C=C(\C(=O)N[C@@H]1C(=O)N2C(C(=O)OCOC(=O)C(C)(C)C)=C(COC(N)=O)CS[C@H]12)c1csc(N)n1.Cl [CFPN-PI, 2,2-Dimethylpropanoyloxymethyl (6R, 7R)-7-[(Z)-2-(2-aminothiazol-4-yl)pent-2-enylamino]-3-carabmoyloxymethyl-8-oxo-5-thia-1-azabicyclo[4.2.0]oct-2-ene-2-carboxylate monohydrochoride monohydrate]
solubility (in N, N-dimethylformamide): freely soluble | solubility (in diethyl ether): practically insoluble | solubility (in ethanol): sparingly soluble | solubility (in methanol): freely soluble | solubility (in water): only slightly soluble | absorption [1]: better after meals than before meals
